26 compounds from patent US9029391B2 (priority 2011, dated 2015) can be followed below.

In this experiment the test system is HIV. As to the kind of experiment: MT4 Assay (anti-HIV activity). The class given is cell-based. Put shortly:
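MT-4 cells (HTLV-1 transformed) were used for antiviral activity and cytotoxicity, run in parallel, with luminescence read by CellTiter-Glo 96 hours later. Percent inhibition was expressed against the no-compound control. IC50s came from 10-point curves of 3-4-fold serial dilutions spanning >1000-fold.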

Where [1] appears, read: Human immunodeficiency virus 1, 96 h, read-out: HIV MT4 Assay IC50, HTLV-1 transformed cell line MT-4, cell titer glo, 10 point dose response curve.

Molecules are shown by their SMILES. pIC50: −log10 of the molar value. Where a name gives a salt, the structure may show the parent alone. Read-outs that look alike come from different tables or passages of the source.

As for `Cc1c(-c2c([C@H](OC(C)(C)C)C(=O)O)n(C)c(=O)c3cc(-c4ccnn4C)ccc23)cc(F)c2c1CCCO2` (atropisomer, axis not shown; (M)) [Example 195, (2S)(M)-[(1,1-dimethylethyl)oxy][4-(8-fluoro-5-methyl-3,4-dihydro-2H-chromen-6-yl)-2-methyl-7-(1-methyl-1H-pyrazol-5-yl)-1-oxo-1,2-dihydro-3-isoquinolinyl]ethanoic acid], the pIC50 under setting [1] is 6.85.

For `Cc1ccc(-c2c(C(OC(C)(C)C)C(=O)O)n(C)c(=O)c3cc(CNCc4ccc5c(-c6ccc(C)c(C)c6)c(C(OC(C)(C)C)C(=O)O)n(C)c(=O)c5c4)ccc23)cc1C` (centres unmarked) [Example 180, 2,2′-(iminobis{methanediyl[4-(3,4-dimethylphenyl)-2-methyl-1-oxo-1,2-dihydroisoquinoline-7,3-diyl]})bis{[(1,1-dimethylethyl)oxy]acetic acid}], the pIC50 under setting [1] was 4.91.

Turning to `Cc1c(-c2c([C@H](OC(C)(C)C)C(=O)O)n(C)c(=O)c3cc(-c4cccc(F)c4)ccc23)cc(F)c2c1CCCO2` (atropisomer, axis not shown; (M)) [Example 210, (S)(M)-2-(tert-butoxy)-2-(4-(8-fluoro-5-methylchroman-6-yl)-7-(3-fluorophenyl)-2-methyl-1-oxo-1,2-dihydroisoquinolin-3-yl)acetic acid], the pIC50 under setting [1] was 8.00.

For the compound `COc1cccc(-c2c(C(OC(C)(C)C)C(=O)O)n(C)c(=O)c3ccccc23)c1` (centres unmarked) [Example 15, 2-(tert-butoxy)-2-[4-(3-methoxyphenyl)-2-methyl-1-oxo-1,2-dihydroisoquinolin-3-yl]acetic acid], the pIC50 under setting [1] was 5.07.

As to `Cn1c(C(OC(C)(C)C)C(=O)O)c(-c2cnc3c(c2)CCCO3)c2ccccc2c1=O` (centres unmarked) [Example 118, 2-(tert-butoxy)-2-(2-methyl-1-oxo-4-{2H,3H,4H-pyrano[2,3-b]pyridin-6-yl}-1,2-dihydroisoquinolin-3-yl)acetic acid], under setting [1], the pIC50 is 4.38.

Take `Cc1c(-c2c([C@@H](OC(C)(C)C)C(=O)O)n(C)c(=O)c3ccccc23)cc(F)c2c1CCCO2` [Example 160, (2R)-2-(tert-butoxy)-2-[4-(8-fluoro-5-methyl-3,4-dihydro-2H-1-benzopyran-6-yl)-2-methyl-1-oxo-1,2-dihydroisoquinolin-3-yl]acetic acid]: for the setting “read-out: HIV MT4 Assay IC50, HTLV-1 transformed cell line MT-4, 96 hours, cell titer glo, 10 point dose response curve”, the pIC50 was 4.38.

Consider `Cc1c(-c2c(C(OC(C)(C)C)C(=O)O)n(C)c(=O)c3cc(OCc4ccc(F)cc4)ccc23)ccc2c1CCCO2` (centres unmarked) [Example 93, 2-(tert-butoxy)-2-{7-[(4-fluorophenyl)methoxy]-2-methyl-4-(5-methyl-3,4-dihydro-2H-1-benzopyran-6-yl)-1-oxo-1,2-dihydroisoquinolin-3-yl}acetic acid], for which the pIC50 under setting [1] is 7.10.

For the compound `Cc1c(-c2c(C(OC(C)(C)C)C(=O)O)n(C)c(=O)c3ccccc23)cc(F)c2c1CCCO2` (centres unmarked) [Example 150, [(1,1-dimethylethyl)oxy][4-(8-fluoro-5-methyl-3,4-dihydro-2H-chromen-6-yl)-2-methyl-1-oxo-1,2-dihydro-3-isoquinolinyl]acetic acid], the pIC50 under setting [1] is 6.80.

On to `Cn1c(C(OC(C)(C)C)C(=O)O)c(-c2ccc3c(c2)CCC3)c2ccccc2c1=O` (centres unmarked) [Example 152, 2-(tert-butoxy)-2-(4-(2,3-dihydro-1H-inden-5-yl)-2-methyl-1-oxo-1,2-dihydroisoquinolin-3-yl)acetic acid], for which the pIC50 under setting [1] was 6.37.

For `COc1ccc2c(-c3ccc4c(c3C)CCCO4)c(C(OC(C)(C)C)C(=O)O)n(C)c(=O)c2c1` (centres unmarked) [Example 76, 2-(tert-butoxy)-2-[7-methoxy-2-methyl-4-(5-methyl-3,4-dihydro-2H-1-benzopyran-6-yl)-1-oxo-1,2-dihydroisoquinolin-3-yl]acetic acid], under setting [1], the pIC50 is 6.92.

As to `Cc1c(-c2c([C@H](OC(C)(C)C)C(=O)O)n(C)c(=O)c3cc(-c4cccn4C)ccc23)cc(F)c2c1CCCO2` (atropisomer, axis not shown; (M)) [Example 202, (S)(M)-[(1,1-dimethylethyl)oxy][4-(8-fluoro-5-methyl-3,4-dihydro-2H-chromen-6-yl)-2-methyl-7-(1-methyl-1H-pyrrol-2-yl)-1-oxo-1,2-dihydro-3-isoquinolinyl]ethanoic acid], under setting [1], the pIC50 is 7.70.

`Cc1ccc(-c2c(C(OC(C)(C)C)C(=O)O)n(C)c(=O)c3cc(CN)ccc23)cc1C` (centres unmarked) [Example 179, [7-(aminomethyl)-4-(3,4-dimethylphenyl)-2-methyl-1-oxo-1,2-dihydro-3-isoquinolinyl][(1,1-dimethylethyl)oxy]acetic acid-TFA salt]: under setting [1], the pIC50 is 4.30.

Turning to `Cc1c(-c2c(C(OC(C)(C)C)C(=O)O)n(C)c(=O)c3cc(OCc4cccs4)ccc23)ccc2c1CCCO2` (centres unmarked) [Example 142, 2-(tert-butoxy)-2-[2-methyl-4-(5-methyl-3,4-dihydro-2H-1-benzopyran-6-yl)-1-oxo-7-(thiophen-2-ylmethoxy)-1,2-dihydroisoquinolin-3-yl]acetic acid], the pIC50 under setting [1] is 7.52.

With `Cc1ccc(-c2c(C(OC(C)(C)C)C(=O)O)n(C)c(=O)c3c(F)cccc23)cc1C` (centres unmarked) [Example 59, 2-(tert-butoxy)-2-[4-(3,4-dimethylphenyl)-8-fluoro-2-methyl-1-oxo-1,2-dihydroisoquinolin-3-yl]acetic acid], the negative logarithm of the IC50 (pIC50) under setting [1] was 5.66.

On to `Cn1c(C(OC(C)(C)C)C(=O)O)c(-c2cc(F)cc(F)c2)c2ccccc2c1=O` (centres unmarked) [Example 6, 2-(tert-butoxy)-2-[4-(3,5-difluorophenyl)-2-methyl-1-oxo-1,2-dihydroisoquinolin-3-yl]acetic acid], for which the pIC50 under setting [1] was 4.98.

`Cc1c(-c2c([C@H](OC(C)(C)C)C(=O)O)n(C)c(=O)c3cc(-c4ccc(N(C)C)cc4)ccc23)cc(F)c2c1CCCO2` (atropisomer, axis not shown; (M)) [Example 199, (2S)(M)-[7-[4-(dimethylamino)phenyl]-4-(8-fluoro-5-methyl-3,4-dihydro-2H-chromen-6-yl)-2-methyl-1-oxo-1,2-dihydro-3-isoquinolinyl][(1,1-dimethylethyl)oxy]ethanoic acid]: the pIC50 under setting [1] was 7.05.

Consider `Cc1c(-c2c(C(OC(C)(C)C)C(=O)O)n(C)c(=O)c3cc(OCCO)ccc23)ccc2c1CCCO2` (centres unmarked) [Example 4, tert-Butoxy-[7-(2-hydroxy-ethoxy)-2-methyl-4-(5-methyl-chroman-6-yl)-1-oxo-1,2-dihydro-isoquinolin-3-yl]-acetic acid], for which the pIC50 under setting [1] is 5.43.

In the case of `Cc1c(-c2c(C(OC(C)(C)C)C(=O)O)n(C)c(=O)c3cc(OC(C)C)ccc23)ccc2c1CCCO2` (centres unmarked) [Example 135, 2-(tert-butoxy)-2-[2-methyl-4-(5-methyl-3,4-dihydro-2H-1-benzopyran-6-yl)-1-oxo-7-(propan-2-yloxy)-1,2-dihydroisoquinolin-3-yl]acetic acid], under setting [1], the pIC50 was 6.85.

Consider `Cn1c(C(OC(C)(C)C)C(=O)O)c(-c2ccc3c(c2)OCCO3)c2ccccc2c1=O` (centres unmarked) [Example 53, 2-(tert-butoxy)-2-[4-(2,3-dihydro-1,4-benzodioxin-6-yl)-2-methyl-1-oxo-1,2-dihydroisoquinolin-3-yl]acetic acid], for which the pIC50 under setting [1] is 5.61.

On to `Cc1c(-c2c(C(OC(C)(C)C)C(=O)O)n(C)c(=O)c3cc(OCCN4CCOCC4)ccc23)ccc2c1CCCO2` (centres unmarked) [Example 119, 2-(tert-butoxy)-2-[2-methyl-4-(5-methyl-3,4-dihydro-2H-1-benzopyran-6-yl)-7-[2-(morpholin-4-yl)ethoxy]-1-oxo-1,2-dihydroisoquinolin-3-yl]acetic acid], for which the pIC50 under setting [1] was 5.67.

Take `Cc1c(-c2c([C@H](OC(C)(C)C)C(=O)O)n(C)c(=O)c3cc(Br)ccc23)cc(F)c2c1CCCO2` (atropisomer, axis not shown; (M)) [Example 164, (2S)(M)-[7-bromo-4-(8-fluoro-5-methyl-3,4-dihydro-2H-chromen-6-yl)-2-methyl-1-oxo-1,2-dihydro-3-isoquinolinyl][(1,1-dimethylethyl)oxy]ethanoic acid]: the pIC50 under setting [1] is 6.34.

On to `COc1ccc(Cc2ccc3c(-c4ccc(C)c(C)c4)c(C(OC(C)(C)C)C(=O)O)n(C)c(=O)c3c2)cc1` (centres unmarked) [Example 171, [(1,1-dimethylethyl)oxy](4-(3,4-dimethylphenyl)-2-methyl-7-{[4-(methyloxy)phenyl]methyl}-1-oxo-1,2-dihydro-3-isoquinolinyl)acetic acid], for which the pIC50 under setting [1] was 5.89.

Take `Cc1c(-c2c(C(OC(C)(C)C)C(=O)O)n(C)c(=O)c3cc(OCc4ccc(OC(F)(F)F)cc4)ccc23)ccc2c1CCCO2` (centres unmarked) [Example 146, 2-(tert-butoxy)-2-[2-methyl-4-(5-methyl-3,4-dihydro-2H-1-benzopyran-6-yl)-1-oxo-7-{[4-(trifluoromethoxy)phenyl]-methoxy}-1,2-dihydroisoquinolin-3-yl]acetic acid]: the pIC50 under setting [1] was 6.59.

For the compound `Cc1c(-c2c([C@H](OC(C)(C)C)C(=O)N(C)O)n(C)c(=O)c3ccccc23)cc(F)c2c1CCCO2` (atropisomer, axis not shown; (M)) [Example 214, (S)(M)-2-(tert-butoxy)-2-(4-(8-fluoro-5-methylchroman-6-yl)-2-methyl-1-oxo-1,2-dihydroisoquinolin-3-yl)-N-hydroxy-N-methylacetamide], the pIC50 under setting [1] is 5.32.

For the compound `COc1ccc(-c2c(C(OC(C)(C)C)C(=O)O)n(C)c(=O)c3ccccc23)cc1` (centres unmarked) [Example 8, 2-(tert-butoxy)-2-[4-(4-methoxyphenyl)-2-methyl-1-oxo-1,2-dihydroisoquinolin-3-yl]acetic acid], the pIC50 under setting [1] is 5.89.

As to `Cc1c(-c2c([C@H](OC(C)(C)C)C(=O)O)n(C)c(=O)c3cc(OCc4cccs4)ccc23)cc(F)c2c1CCCO2` [Example 109, (2S)-2-(tert-butoxy)-2-[4-(8-fluoro-5-methyl-3,4-dihydro-2H-1-benzopyran-6-yl)-2-methyl-1-oxo-7-(thiophen-2-ylmethoxy)-1,2-dihydroisoquinolin-3-yl]acetic acid], the pIC50 under setting [1] was 7.70.

What is called pIC50 is −log10 of the IC50, conventionally taken in molar units.
